Among the data in PubChem BioAssay (NCI) are TGI values, retold here.

What all share (experiment): inhibition of tumour cell growth, NCI panel, 48 h
Experiment [1] deals with IGROV1 ovarian.
Experiment [2] has as its system HCT-15 colon.
For experiment [3], the system named is LOX IMVI melanoma.
The test system of experiment [4] is SNB-75 CNS.
The subject of experiment [5] is ACHN renal.
The test system of experiment [6] is SF-268 CNS.
For experiment [7], the system named is DU-145 prostate.
Experiment [8] has as its system MDA-N.
The subject of experiment [9] is M14 melanoma.
In experiment [10] the test system is OVCAR-3 ovarian.
The subject of experiment [11] is KM12 colon.
For experiment [12], the system named is MCF7 breast.
For experiment [13], the system named is U251 CNS.

The structures appear in SMILES notation.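 Cultured in 96-well plates, cells were exposed to test compound for 48 hours across five concentrations. TGI: total growth inhibition.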 *1 amine or outer side, *2 acyl side, *3 side chain or, on linkers, in order; H or OH if unused. Where a SMILES comes first, the peptide text is derived from it. Bridges are numbered along the chain shown (N, C = ends). [ ]: non-standard residue; d: D form. X59 = COc1c(N[*:1])cccc1C(=O)O[C@H](C(=O)[C@H](C)C(=O)[*:2])C(C)C; X58 = CC(C)C[C@H](C(=O)[*:2])C(C)C(=O)C1CCCN1[*:1]; NMeY = CN[C@@H](Cc1ccc(O)cc1)C(=O)O; Lac = C[C@H](O)C(=O)O

On to `C=C1C(=O)OC2/C=C(\C)CC/C=C(\C)CC(OC(=O)/C(=C/CO)CO)[C@@H]12` (stereo partly drawn), for which the TGI came out at 26.1 µM in [1]; 29.7 µM in experiment [2]; 31.1 µM in [3]; 29.8 µM in experiment [4]; 19.3 µM in experiment [5]; 45 µM in experiment [6]. Further, the TGI came to 42.3 µM in [7]; 20.2 µM in experiment [8]; 11.4 µM in [9]; 18.4 µM in experiment [10]; 35.1 µM in experiment [11]; 22.9 µM in experiment [12]. This compound also registered a TGI in experiment [13] of 4.71 µM.

Turning to `O=C1O/C(=C(/Cl)c2c3ccccc3cc3ccccc23)c2ccccc21`, the TGI in [1] was 71.2 µM; in experiment [2] it was greater than 100 µM; in experiment [3] it was 8.04 µM; in experiment [4] it was 36.6 µM; in experiment [5], 82.9 µM; in experiment [6] it was greater than 100 µM. In addition, the TGI in [7] is greater than 100 µM; in experiment [8], greater than 100 µM; in experiment [9], 53.8 µM; in [10] it was 60.9 µM; in experiment [11], 17.3 µM; in experiment [12], greater than 100 µM. In experiment [13], this compound had a TGI greater than 100 µM.

For the compound `O=C1/C(=C/c2ccc(OC(=O)c3ccc(Cl)cc3)cc2)CCC/C1=C\c1ccc(OC(=O)c2ccc(Cl)cc2)cc1`, the TGI in experiment [1] was greater than 100 µM; in experiment [2], greater than 100 µM; in experiment [3] it was greater than 100 µM; in experiment [4] it was 60.8 µM; in experiment [5] it was greater than 100 µM; in experiment [6] it was greater than 100 µM. Also, the TGI in [7], in experiment [8], in experiment [9], in [10], in [11] and in [12] was greater than 100 µM throughout. This compound came in with a TGI in experiment [13] greater than 100 µM.

For `O=C(/C=C/c1ccccc1Br)c1ccccc1`, the TGI in [1] was found to be 9.91 µM; in [2] it was 6.36 µM; in experiment [3] it was 2.64 µM; in experiment [4] it was 25.4 µM; in experiment [5] it was 3.73 µM; in experiment [6] it was 10.5 µM. Further, the TGI in [7] stood at 20.1 µM; in experiment [8], 18.4 µM; in [9], 15.1 µM; in experiment [10] it was 22.1 µM; in experiment [11] it was 6.53 µM; in [12], 2.27 µM. The TGI in [13] amounted to 2.9 µM.

Regarding `CC(C)(C)CN1[C@@H]2CCCC[C@H]2N(CC(C)(C)C)P1(=O)C(O)/C=C/c1ccccc1` (stereo partly drawn), the TGI in [1] is greater than 100 µM; in experiment [2], greater than 100 µM; in [3], 37.3 µM; in [4], greater than 100 µM; in experiment [5] it was 93.7 µM; in [6] it was greater than 100 µM. Moreover, the TGI in [7], in [8], in [9], in experiment [10], in experiment [11] and in [12] was greater than 100 µM in each case. This compound returned a TGI in experiment [13] greater than 100 µM.

On to `COC(=O)/C=C/C(=O)Nc1cc(Cl)c(Cl)cc1CC(=O)N(C)[C@H]1CCCC[C@@H]1N1CCCC1`, for which the TGI in [1] amounted to 22 µM; in experiment [2], 28 µM; in experiment [3] it was 24.4 µM; in experiment [4] it was 26.8 µM; in experiment [5], 14.6 µM; in experiment [6] it was 35.5 µM. Moreover, the TGI in [7] is 19.9 µM; in [8] it was 25.2 µM; in experiment [9], 32.3 µM; in [10] it was 16.3 µM; in experiment [11], greater than 56 µM; in [12], 13.6 µM. Moreover, in [13], the TGI was determined as 31.6 µM.

`Cc1c(-c2ccccc2)c(C#N)c2nnn(C)c(=O)n12`: the TGI in experiment [1], in experiment [2], in experiment [3], in experiment [4], in experiment [5] and in experiment [6] was greater than 100 µM throughout. The TGI in experiment [7], in experiment [8], in experiment [9], in experiment [10], in [11] and in [12] was greater than 100 µM each time. The same compound had a TGI in experiment [13] greater than 100 µM.

Take `COc1ccc(C[C@H]2C(=O)O[C@H](C)[C@H](NC(=O)[C@@H](CC(C)C)C(C)C(=O)C3CCCN3C(=O)[C@H](C)O)C(=O)Nc3cccc(c3OC)C(=O)O[C@@H](C(C)C)C(=O)[C@H](C)C(=O)N[C@@H](CC(C)C)C(=O)N3CCC[C@H]3C(=O)N2C)cc1` (stereo partly drawn) (H-[Lac][X58]T[X59]LP[NMeY](Me); ester 3-C): the TGI in experiment [1], in experiment [2], in [3], in experiment [4], in experiment [5] and in [6] was greater than 12.5 µM throughout. For the same compound, the TGI in experiment [7], in experiment [8], in experiment [9], in experiment [10], in experiment [11] and in experiment [12] was greater than 12.5 µM each time. The same compound registered a TGI in experiment [13] greater than 12.5 µM.

For the compound `COc1cc(OC)c2nc(C)c3c(c2c1)OCC3`, the TGI in experiment [1], in experiment [2], in experiment [3], in [4], in experiment [5] and in experiment [6] was greater than 100 µM in each case. Also, the TGI in [7], in experiment [8], in experiment [9], in [10], in experiment [11] and in [12] was greater than 100 µM in each case. The compound further showed a TGI in experiment [13] greater than 100 µM.

For `CN(C)CCN=C1Nc2ccccc2C(=O)N2CSCC12` (stereo not drawn), the TGI in experiment [1], in [2], in experiment [3], in experiment [4], in experiment [5] and in experiment [6] was greater than 100 µM throughout. In addition, the TGI in experiment [7], in experiment [8], in [9], in experiment [10], in [11] and in experiment [12] was greater than 100 µM each time. Further, the TGI in experiment [13] is greater than 100 µM.

Take `O=C1OC(C2Cc3ccc4c(c3C2=O)CCCC4)c2ccccc21` (stereo not drawn): the TGI in [1], in [2], in [3], in [4], in experiment [5] and in experiment [6] was greater than 100 µM in each case. Also, the TGI is greater than 100 µM in [7]; greater than 100 µM in experiment [8]; greater than 100 µM in experiment [9]; 88.2 µM in experiment [10]; greater than 100 µM in [11]; greater than 100 µM in experiment [12]. In [13], this compound showed a TGI greater than 100 µM.

Turning to `CC1(C)CC2C(/C1=N/O)C1(C)CCCC2(C)C1O` (stereo not drawn), the TGI in experiment [1], in [2], in experiment [3], in experiment [4], in experiment [5] and in experiment [6] was greater than 100 µM each time. Besides, the TGI in experiment [7], in [8], in experiment [9], in experiment [10], in experiment [11] and in experiment [12] was greater than 100 µM each time. Moreover, the TGI in experiment [13] is greater than 100 µM.

In the case of `COc1ccc(OC2OC(CO)C(O)C(O)C2O)cc1` (stereo not drawn), the TGI in experiment [1], in experiment [2], in experiment [3], in experiment [4], in [5] and in experiment [6] was greater than 100 µM in each case. Further, the TGI in [7], in experiment [8], in experiment [9], in experiment [10], in experiment [11] and in experiment [12] was greater than 100 µM in each case. Also, the TGI in [13] is greater than 100 µM.

In the case of `CN1C(=O)C(C#N)C2C[C@@]1(C)Oc1ccccc12` (stereo partly drawn), the TGI in experiment [1], in [2], in experiment [3], in experiment [4], in experiment [5] and in [6] was greater than 100 µM in each case. The TGI in experiment [7], in experiment [8], in experiment [9], in [10], in [11] and in [12] was greater than 100 µM each time. The compound further displayed a TGI in experiment [13] greater than 100 µM.

Consider `N/N=C(/CC(O)(C(F)(F)F)C(F)(F)F)c1ccccc1`, for which the TGI in [1], in experiment [2], in experiment [3], in experiment [4], in experiment [5] and in [6] was greater than 10 µM in each case. For the same compound, the TGI in [7], in experiment [8], in experiment [9], in [10], in experiment [11] and in experiment [12] was greater than 10 µM throughout. The same compound registered a TGI in [13] greater than 10 µM.

For `O=C1Nc2ccccc2/C1=N/N1C(=O)/C(=C/c2ccccc2S)N=C1c1ccccc1`, the TGI in experiment [1], in experiment [2], in experiment [3], in [4], in experiment [5] and in experiment [6] was greater than 100 µM throughout. Moreover, the TGI in experiment [7], in experiment [8], in experiment [9], in [10], in experiment [11] and in experiment [12] was greater than 100 µM each time. In experiment [13], this compound displayed a TGI greater than 100 µM.
